Results as given in BindingDB's records for doi:10.1016/s0960-894x(02)00137-3 (Kingston University, 2002).

target: T1, Steryl-sulfatase (Homo sapiens, UniProt P08842); test: ChEBML_68022
T1 sequence (P08842 whole entry): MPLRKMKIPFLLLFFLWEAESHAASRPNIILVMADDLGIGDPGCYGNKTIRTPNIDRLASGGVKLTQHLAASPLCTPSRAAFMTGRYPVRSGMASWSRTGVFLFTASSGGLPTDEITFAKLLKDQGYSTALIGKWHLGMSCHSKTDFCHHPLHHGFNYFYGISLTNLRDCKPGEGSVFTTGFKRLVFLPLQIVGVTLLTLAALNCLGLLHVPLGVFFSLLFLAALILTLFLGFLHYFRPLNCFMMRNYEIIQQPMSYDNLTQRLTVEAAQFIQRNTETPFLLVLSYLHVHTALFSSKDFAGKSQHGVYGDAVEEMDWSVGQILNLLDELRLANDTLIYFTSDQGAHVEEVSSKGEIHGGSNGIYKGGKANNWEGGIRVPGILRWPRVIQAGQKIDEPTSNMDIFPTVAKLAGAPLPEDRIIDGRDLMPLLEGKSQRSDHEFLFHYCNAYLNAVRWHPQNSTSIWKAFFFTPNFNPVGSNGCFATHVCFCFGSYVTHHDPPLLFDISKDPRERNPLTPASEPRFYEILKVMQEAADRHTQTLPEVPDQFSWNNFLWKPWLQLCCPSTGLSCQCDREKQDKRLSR
Description: In vitro inhibition of estrone sulfatase.

Question: `NS(=O)(=O)Oc1ccccc1` was tested. Which IC50 did it give?
Answer: > 10000 µM

Question: For `NS(=O)(=O)Oc1ccc(F)cc1` [4-fluorophenyl sulfamate], which IC50 is on record?
Answer: 537 µM

Question: How did the IC50 turn out when `NS(=O)(=O)OCC(Cl)(Cl)Cl` [Sulfamic acid 2,2,2-trichloro-ethyl ester] was run?
Answer: 750 µM

Question: For `NS(=O)(=O)Oc1cccc(I)c1` [Sulfamic acid 3-iodo-phenyl ester], which IC50 is on record?
Answer: 120 µM

Question: With `NS(=O)(=O)Oc1ccc(I)cc1` [Sulfamic acid 4-iodo-phenyl ester] as the compound, how does the IC50 read?
Answer: 560 µM

Question: How did the IC50 turn out when `Cc1cccc(OS(N)(=O)=O)c1` [Sulfamic acid m-tolyl ester] was run?
Answer: 2090 µM

Question: Which IC50 does the source give for `Cc1ccc(OS(N)(=O)=O)cc1` [Sulfamic acid p-tolyl ester] here?
Answer: > 10000 µM
